The results in this text go back to patent publication US7649022B2, “Bioabsorbable elastomeric polymer networks, cross-linkers and methods of use” (priority 2007, dated 2010).

A short description of the data set: Properties and self-adherence of films of PEA 4-Phe-4 mixed with EAC-2 cross-linkers, dry and after 24 h in water. Type of data set: physicochemical. Set-up: key to Self-adherence: (—) means: no self-adherence observed. The following applies: for Self-adherence: folded film in water 24 hours; for Wet: pre-soaked in water at room temperature 24 hours; for Dry: dry film. An excerpt:
At the first stage, this Example addresses the question of whether invention cross-linking agents can be used as plasticizers without causing the composition to undesirably adhere to the surface of other materials (for example, steel, and other medical device surfaces).

On to `C=CC(=O)NC(CC(C)C)C(=O)OCCCCCCOC(=O)C(CC(C)C)NC(=O)C=C` (stereo not shown) [Leu-6-AA], for which the Self-adherence result (PEA 4-Phe-4/EAC-2 40/60 w/w) is given as “—”. Where the note is “PEA 4-Phe-4/EAC-2 60/40 w/w”, the Self-adherence result is “—” and the Wet result is on record as “Brittle”. In addition, under “PEA 4-Phe-4/EAC-2 80/20 w/w”, the Dry entry is “Hard” and the Self-adherence result is given as “—”.

In the case of `O=C(C=Cc1ccccc1)NC(Cc1ccccc1)C(=O)OCCCCCCOC(=O)C(Cc1ccccc1)NC(=O)C=Cc1ccccc1` (stereo not shown) [Phe-6-CA], for the setting “PEA 4-Phe-4/EAC-2 40/60 w/w”, the Dry result is recorded as “Brittle” and the Self-adherence result is listed as “—”. Also, under “PEA 4-Phe-4/EAC-2 60/40 w/w”, the Dry result is given as “Brittle”, the Self-adherence entry is “—” and the Wet result is “Elastic”. In addition, for the setting “PEA 4-Phe-4/EAC-2 80/20 w/w”, the Dry result is “Hard” and the Self-adherence result was “—”.

Regarding `CC(C)CC(NC(=O)C=Cc1ccccc1)C(=O)OCCCCCCOC(=O)C(CC(C)C)NC(=O)C=Cc1ccccc1` (stereo not shown) [Leu-6-CA], the Self-adherence result is listed as “—” (PEA 4-Phe-4/EAC-2 40/60 w/w), “—” (PEA 4-Phe-4/EAC-2 60/40 w/w) and “—” (PEA 4-Phe-4/EAC-2 80/20 w/w). Further, the Dry result (PEA 4-Phe-4/EAC-2 60/40 w/w) was “Elastic”.

For the molecule `C=C(C)C(=O)N[C@@H](Cc1ccccc1)C(=O)OCCCCCCOC(=O)[C@H](Cc1ccccc1)NC(=O)C(=C)C` [Phe-6-MA, dimethacrylate of bis(L-Phe)-1,6-hexanediol diester], the Self-adherence result is, setting by setting: (PEA 4-Phe-4/EAC-2 40/60 w/w) “—”; (PEA 4-Phe-4/EAC-2 60/40 w/w) “—”; (PEA 4-Phe-4/EAC-2 80/20 w/w) “—”. The Dry entry is, setting by setting: (PEA 4-Phe-4/EAC-2 60/40 w/w) “Hard”; (PEA 4-Phe-4/EAC-2 80/20 w/w) “Hard”. For the setting “PEA 4-Phe-4/EAC-2 60/40 w/w”, the Wet entry was “Elastic”.

On to `C=C(C)C(=O)NC(CC(C)C)C(=O)OCCCCCCOC(=O)C(CC(C)C)NC(=O)C(=C)C` (stereo not shown) [Leu-6-MA], for which the Self-adherence result is, setting by setting: (PEA 4-Phe-4/EAC-2 40/60 w/w) “—”; (PEA 4-Phe-4/EAC-2 60/40 w/w) “—”; (PEA 4-Phe-4/EAC-2 80/20 w/w) “—”.
